Series [1] has as its system epidural fibrosis after laminectomy. The experiment in a line: Rat laminectomy epidural fibrosis model, Example 8. It counts as in vivo. The procedure: Epidural fibrosis was investigated after laminectomies in adult Lewis rats. Laminectomies were performed at the lumbar 3 (L3) and 5 (L5) vertebrae. The test agent gel was applied to one site and saline (control) was applied to the other. Two weeks later, the laminectomy sites were examined for fibrosis by gross dissection as previously described. Briefly, rats were anesthetized. The dorsal skin was incised and the paraspinal muscles were separated from the spinous processes of lumbar vertebrae L2 through L6 to expose L3 and L5. The spinous processes of L3 and L5 and the vertebral lamina were removed, creating a rectangular laminectomy defect approximately 5×2 mm (FIG. 11A). The test material NM2040, or vehicle was placed onto the laminectomy site according to randomized, coded protocol (FIG. 11B). The formulation of NM2040 consisted of 10% gel foam powder, 20 mg/ml final concentration in sterile saline. The mixtures were placed in a syringe, autoclaved and allowed to cool to room temperature prior to placement into the laminectomy site. The fascia overlying the paraspinal muscles was sutured 5-0 polydoxanone PDS resorbable suture (Ethicon) and the skin incision was closed with 7.5 mm Michel wound clips. After two weeks, animals were anesthetized and subjected to gross evaluation. For gross evaluation, the wound site was reopened by incising the skin and separating the paraspinal muscles. Epidural scar formation was designated as the connective tissue between the test material and the dura mater. The thickness and toughness of the deep scar was evaluated by blunt dissection and scored 0 to 2.0 being the “no adhesions” with the dura mater clearly visible, 1 being a thin, lose connective tissue covering the dura that was easily removed, and 2 being a thick, dense tenacious adhesion that was difficult to impossible to remove without tearing the dura. Scoring was completed without knowledge of treatment at any of the laminectomy sites.

Series [2] concerns neutrophils. Kind of series: Neutrophil activation after tubing loop (flow cytometry CD15/CD11b). The settings on record: blood after tubing loop. It counts as cell-based, human. How it is done:
(§1) Chemotactic peptides are produced at the injury site, which can attract inflammatory cells at the injury site causing inflammation. NM2040 was tested to determine if this compound would inhibit the production of the C3a and C5a. The compound was incubated with blood at 37 degree in a rotating tubing loops. Whole blood from a healthy donor was collected into a polypropylene tube containing 5 units of heparin per ml of whole blood. The whole blood was diluted 1:1 with plasmalyte and aliquoted in 2 ml aliquots with and without drug treatments. PVC tubings of 4 mm diameter were filled with 2.0 ml of the heparinized human blood and closed into a loop with a short piece of silicon tubing. […] The plasma samples were diluted to 5% with sample diluent buffer and the amounts of C3a and C5a were determined using ELISA assay kits following the manufacturer's instructions (Quidel Corporation, San Diego Calif.). […] In the same experiment, NM3015 was also evaluated. […]
(§2) Aliquots of blood following the tubing loop were stained with fluorescent labeled antibodies for flow cytometry studies. […] The samples were subjected to flow cytometry using CellQuest, BD-LSR I and the data were analyzed using WinList 5.0. Ln Median was used for calculating the shift in CD11b staining for neutrophils and monocytes. % gated dual labeled cells were quantified for platelet populations.
(In general: A flow cytometer gives signals particle by particle.)

Series [3] deals with platelets. The experiment in a line: Platelet damage / platelet number after tubing loop (flow cytometry CD61/CD62P). In kind it is cell-based, human. The settings on record: blood after tubing loop, FITC CD61 positive platelets. The procedure:
as §1, with “tubing. Sample and control tubing loops were rotated vertically in a water bath for 2 hours at 37° C. After incubation, blood samples were transferred into 5 ml siliconized eppendorf tubes.” for “tubing.”
Aliquots of blood following the tubing loop were stained with fluorescent labeled antibodies for flow cytometry studies. […] The samples were subjected to flow cytometry using CellQuest, BD-LSR I and the data were analyzed using WinList 5.0. […]

The test system of series [4] is C3a. Kind of series: C3a formation in whole blood tubing loop (ELISA). In kind it is cell-based. The settings on record: heparinized human whole blood 1:1 plasmalyte, tubing loop 2 hours 37° C. How it is done: (§3) Chemotactic peptides are produced at the injury site, which can attract inflammatory cells at the injury site causing inflammation. NM2040 was tested to determine if this compound would inhibit the production of the C3a and C5a. The compound was incubated with blood at 37 degree in a rotating tubing loops. Whole blood from a healthy donor was collected into a polypropylene tube containing 5 units of heparin per ml of whole blood. The whole blood was diluted 1:1 with plasmalyte and aliquoted in 2 ml aliquots with and without drug treatments. PVC tubings of 4 mm diameter were filled with 2.0 ml of the heparinized human blood and closed into a loop with a short piece of silicon tubing. Sample and control tubing loops were rotated vertically in a water bath for 2 hours at 37° C. After incubation, blood samples were transferred into 5 ml siliconized eppendorf tubes. The samples were separated into two aliquots; one aliquot was subjected to flow cytometry studies and the other aliquot was centrifuged to separate the plasma for the measurement of C3a and C5a. The plasma samples were diluted to 5% with sample diluent buffer and the amounts of C3a and C5a were determined using ELISA assay kits following the manufacturer's instructions (Quidel Corporation, San Diego Calif.). […] In the same experiment, NM3015 was also evaluated. […]
A general note: An ELISA detects its analyte on a solid surface through an enzyme-linked reagent.

Series [5] concerns alternative pathway. Kind of series: Alternative pathway (AP) activation. It counts as cell-based, human. The procedure: as §3
In series [6] the test system is C5a. Kind of series: C5a formation in whole blood tubing loop (ELISA). To be noted: heparinized human whole blood 1:1 plasmalyte, tubing loop 2 hours 37° C. In kind it is cell-based. The procedure:
as §3

Series [7] concerns epidural fibrosis after lumbar laminectomy. Kind of series: Rat laminectomy epidural fibrosis model, Example 6. It counts as in vivo. To be noted: two weeks after laminectomy. An excerpt: The scar tissue attachment to the spinal cord is believed to be the cause of long-term, recurrent pain following laminectomy procedures. The epidural fibrosis refers to the scar tissue that forms following a laminectomy procedure. Laminectomy refers to back surgery of the lamina. Scar tissue forms within the laminectomy site and binds the undersurface of the erector spinae muscles to the posterior and lateral surfaces of the dura mater and to the nerve roots exiting through the dura matter. Epidural fibrosis was investigated after lumbar laminectomy in rats. In this model, a laminectomy is performed at the lumbar 3 (L3) and 5 (L5) vertebrae and then the test agent is applied to the laminectomy site. Subsequently, the laminectomy sites are examined for fibrosis by gross dissection.
Laminectomies were performed at lumbar vertebrae L3 and L5 to provide auto-controls within each animal. Gelfoam-NM2040 mix was prepared and used on Laminectomy sites in rats. Lewis inbred rats were anesthetized isofluorane. The dorsal skin was incised and the paraspinal muscles were separated from the spinous processes of lumbar vertebrae L2 through L6 to expose the L3 and L5. The spinous processes of L3 and L5 were removed and the vertebral lamina was also removed creating a rectangular laminectomy defect. The test material was placed onto the laminectomy site. […] The site and the tissue were scored 0 to 2. […]

Series [8] relates to monocytes. The experiment in a line: Monocyte activation after tubing loop (flow cytometry CD14/CD11b). In kind it is cell-based, human. To be noted: blood after tubing loop. The procedure: as §1, §2
Series [9] relates to 3T3 cells. Kind of series: 3T3 cell proliferation assay (Cy Quant fluorescence). In kind it is cell-based. The settings on record: 1 to 600 μg/ml, 5 days, DMEM 10% FCS. The procedure: Approximately 50,000 cells were plated in a 96 well ELISA plate. The cells were allowed to grow in DMEM with 10% FCS media for 5 days, following which the cells were treated with Cy Quant assay and the inhibition of cellular proliferation was measured using the decreased fluorescence intensity. To evaluate the effect of various concentrations of NM2040 in the cellular proliferation assay, cultures were treated with concentrations ranging from 1 to 600 μg/ml. The total fluorescence intensity was plotted against the concentrations.

Series [10] deals with platelets. Kind of series: Platelet activation after tubing loop (flow cytometry CD61/CD62P). To be noted: blood after tubing loop. It counts as cell-based, human. The procedure: as §1, §2
For series [11], the system named is C6 cells. Kind of series: Glioma (C6 cell) proliferation in cloning ring culture. In kind it is cell-based. The settings on record: five days; for concentration of maximal effect on glioma proliferation: C6 cells. How it is done:
In a six well plate, a cloning ring of 6 mm diameter was placed and 60 μl aliquot of cellular suspension (stock containing 320,000 cells/ml of C6 cells) was prepared and placed in the center of each well of a six well plate in the cloning ring. After 4 h, the media was removed and the cells were incubated with Opti-MEM 1× media with and without the compound. These cultures were incubated at 37° C. and with 10% CO2 for five days, following which the pictures were taken as shown in FIG. 2. The compound effect appears to be dose dependent with maximal effect shown at […]. The first panel is for controls (untreated), the second panel at 3 mg/ml, the third panel at 1.5 mg/ml, the fourth panel at 0.75 mg/ml, and the fifth panel at 0.36 mg/ml.

“Also recorded” adds a separate entry of the source.

For “conjugate of dextran sulfate and 2-(butane-1-sulfonylamino)-3-[4-(4-piperidin-4-yl-butoxy)-phenyl]-propionic acid [NM2040]”, in series [1] (two weeks after laminectomy), the “adhesion scores compared to treatment with vehicle” value is “significantly reduces adhesion scores” and the “gross appearance of laminectomy site” value is on record as “thin easily removed connective tissue above the dura to no adhesions”. Moreover, the “average gross evaluation score of epidural scar (0 to 2)” value in series [1] (two weeks after laminectomy, gel at site, saline sites scored 2) is reported as 0.5. The “histological sections of the vertebral column at L3 (Masson trichrome)” value in series [1] (two weeks, compared to controls) is given as “smooth filling”. The “MRI appearance of laminectomy site” value in [1] (two weeks, compared to saline controls) is “the tissue appears to be smooth”. For the same substance, the “neutrophil activation (CD11b shift)” value in series [2] is recorded as “significant inhibition of cellular activation”. Further, in [3], the “effect on platelets (platelet damage / number)” value is “does not affect the platelets; also recorded: does not destroy platelets”. Moreover, in series [4], the C3a production result was “prevent C3a and C5a production in a dose dependent manner”. Besides, in [5], the “activation of the alternative pathway” value is “inhibits activation of the alternative pathway”. The C5a production entry in [6] was “prevent C3a and C5a production in a dose dependent manner”. In addition, the “adhesion scores compared to saline controls” value in series [7] is on record as “significantly lower”. Also, the “monocyte activation (CD11b shift)” value in series [8] is listed as “significant inhibition of cellular activation”. Also, the 3T3 cell proliferation result in [9] is reported as “Inhibits”. For the same substance, the “platelet activation (% gated CD61/CD62P dual labeled)” value in [10] is “significant inhibition of cellular activation”. For the same substance, in series [11] (C6 cells, 0.36, 0.75, 1.5 and 3 mg/ml), the “glioma proliferation, effect” value was “inhibitory at all doses”. The “concentration of maximal effect on glioma proliferation” value in series [11] (first statement) is 3 µg/mL. The “concentration of maximal effect on glioma proliferation” value in series [11] (second statement) is roughly 1000 µg/mL.

Values taken from US8680075B2, “Methods and compositions for inhibiting cellular proliferation and surgical adhesion” (Novelmed Therapeutics, Inc., priority 2009, dated 2014).
